# According to ChEMBL document CHEMBL4507323, “Data for DCP probe Ogerin” (2021):
# What was measured:
# [1] = target: T1, 5-hydroxytryptamine receptor 2B (Homo sapiens, UniProt P41595); experiment: GPCRScan assay: inhibition of 5-HT2B; parameters: radioligand conc. used [nm] 1.0 – 2.0, parental cells stable HEK
# [2] = target: 5-hydroxytryptamine receptor 1A (Homo sapiens) (UniProt P08908); conditions: Compound concentration 10.0 uM
# [3] = target: 5-hydroxytryptamine receptor 1B (Homo sapiens) (UniProt P28222); conditions: Compound concentration 10.0 uM
# [4] = target: 5-hydroxytryptamine receptor 1D (Homo sapiens) (UniProt P28221); conditions: Compound concentration 10.0 uM
# Chain of 5-hydroxytryptamine receptor 1D (Homo sapiens) (P28221 whole entry): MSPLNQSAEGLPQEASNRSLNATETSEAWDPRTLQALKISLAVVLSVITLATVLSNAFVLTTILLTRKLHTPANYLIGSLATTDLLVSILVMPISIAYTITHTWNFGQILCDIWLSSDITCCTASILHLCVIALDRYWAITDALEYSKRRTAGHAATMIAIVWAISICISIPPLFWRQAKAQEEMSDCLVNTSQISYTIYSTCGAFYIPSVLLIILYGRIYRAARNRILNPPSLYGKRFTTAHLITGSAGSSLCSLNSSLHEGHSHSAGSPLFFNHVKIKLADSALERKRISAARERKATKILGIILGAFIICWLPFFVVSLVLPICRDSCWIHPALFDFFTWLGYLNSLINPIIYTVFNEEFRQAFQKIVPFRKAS
# [5] = target: 5-hydroxytryptamine receptor 2A (Homo sapiens) (UniProt P28223); conditions: Compound concentration 10.0 uM
# [6] = target: T1, 5-hydroxytryptamine receptor 2B; conditions: Compound concentration 10.0 uM
# [7] = target: 5-hydroxytryptamine receptor 2C (Homo sapiens) (UniProt P28335); conditions: Compound concentration 10.0 uM
# Chain of 5-hydroxytryptamine receptor 2C (Homo sapiens) (P28335 whole entry): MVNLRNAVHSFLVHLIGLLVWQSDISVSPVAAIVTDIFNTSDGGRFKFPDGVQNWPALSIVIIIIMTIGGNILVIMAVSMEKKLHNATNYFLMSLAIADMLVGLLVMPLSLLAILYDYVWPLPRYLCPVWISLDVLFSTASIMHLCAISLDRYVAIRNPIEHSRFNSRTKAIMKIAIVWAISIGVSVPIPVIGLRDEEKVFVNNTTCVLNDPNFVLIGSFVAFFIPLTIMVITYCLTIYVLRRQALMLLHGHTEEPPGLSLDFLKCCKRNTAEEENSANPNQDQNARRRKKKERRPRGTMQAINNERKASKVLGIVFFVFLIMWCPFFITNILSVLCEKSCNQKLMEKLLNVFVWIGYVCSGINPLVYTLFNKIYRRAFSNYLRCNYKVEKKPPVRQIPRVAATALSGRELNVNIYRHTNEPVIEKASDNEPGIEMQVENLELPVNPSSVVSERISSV
# [8] = target: 5-hydroxytryptamine receptor 3A (Homo sapiens) (UniProt P46098); conditions: Compound concentration 10.0 uM
# Chain of 5-hydroxytryptamine receptor 3A (Homo sapiens) (P46098 whole entry): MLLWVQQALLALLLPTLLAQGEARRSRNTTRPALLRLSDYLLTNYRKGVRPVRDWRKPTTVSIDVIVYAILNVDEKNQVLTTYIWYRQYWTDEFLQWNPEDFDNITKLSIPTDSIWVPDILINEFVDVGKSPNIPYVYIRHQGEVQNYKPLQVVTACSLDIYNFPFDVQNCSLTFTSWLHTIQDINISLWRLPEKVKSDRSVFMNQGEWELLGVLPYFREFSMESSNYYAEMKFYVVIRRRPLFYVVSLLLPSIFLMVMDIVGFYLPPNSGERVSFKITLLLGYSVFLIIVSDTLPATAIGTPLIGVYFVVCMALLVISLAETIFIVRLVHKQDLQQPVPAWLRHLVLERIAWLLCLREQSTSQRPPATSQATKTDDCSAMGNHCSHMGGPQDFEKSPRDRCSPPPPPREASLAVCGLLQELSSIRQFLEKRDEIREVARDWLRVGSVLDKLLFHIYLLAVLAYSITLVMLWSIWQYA
# [9] = target: 5-hydroxytryptamine receptor 5A (Homo sapiens) (UniProt P47898); conditions: Compound concentration 10.0 uM
# [10] = target: 5-hydroxytryptamine receptor 6 (Homo sapiens) (UniProt P50406); conditions: Compound concentration 10.0 uM
# [11] = target: 5-hydroxytryptamine receptor 7 (Homo sapiens) (UniProt P34969); conditions: Compound concentration 10.0 uM
# [12] = target: D(1A) dopamine receptor (Homo sapiens) (UniProt P21728); conditions: Compound concentration 10.0 uM
# [13] = target: D(2) dopamine receptor (Homo sapiens) (UniProt P14416); conditions: Compound concentration 10.0 uM
# [14] = target: D(3) dopamine receptor (Homo sapiens) (UniProt P35462); conditions: Compound concentration 10.0 uM
# Chain of D(3) dopamine receptor (Homo sapiens) (P35462 whole entry): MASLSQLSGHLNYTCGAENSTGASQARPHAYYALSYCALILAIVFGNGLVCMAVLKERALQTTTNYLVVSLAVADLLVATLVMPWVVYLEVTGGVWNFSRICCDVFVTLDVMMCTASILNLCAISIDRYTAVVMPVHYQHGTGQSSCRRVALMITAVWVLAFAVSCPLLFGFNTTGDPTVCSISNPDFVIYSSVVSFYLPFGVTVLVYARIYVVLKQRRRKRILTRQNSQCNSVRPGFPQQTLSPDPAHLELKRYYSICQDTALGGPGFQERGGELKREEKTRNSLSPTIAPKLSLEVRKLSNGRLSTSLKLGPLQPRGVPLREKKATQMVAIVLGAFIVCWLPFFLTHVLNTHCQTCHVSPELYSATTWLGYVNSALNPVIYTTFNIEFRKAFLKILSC
# [15] = target: D(4) dopamine receptor (Homo sapiens) (UniProt P21917); conditions: Compound concentration 10.0 uM
# Chain of D(4) dopamine receptor (Homo sapiens) (P21917 whole entry): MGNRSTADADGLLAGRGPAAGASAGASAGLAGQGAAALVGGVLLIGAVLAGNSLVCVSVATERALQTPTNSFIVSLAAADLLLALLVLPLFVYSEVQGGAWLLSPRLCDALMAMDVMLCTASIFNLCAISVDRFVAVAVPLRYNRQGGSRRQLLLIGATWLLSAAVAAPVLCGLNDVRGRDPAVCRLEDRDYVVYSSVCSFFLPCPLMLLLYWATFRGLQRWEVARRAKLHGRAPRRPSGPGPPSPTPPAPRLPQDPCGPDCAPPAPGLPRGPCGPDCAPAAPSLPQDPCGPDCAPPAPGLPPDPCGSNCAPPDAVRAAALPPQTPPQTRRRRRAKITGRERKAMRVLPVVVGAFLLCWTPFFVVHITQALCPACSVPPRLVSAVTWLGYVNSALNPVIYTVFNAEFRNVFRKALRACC
# [16] = target: D(1B) dopamine receptor (Homo sapiens) (UniProt P21918); conditions: Compound concentration 10.0 uM
# [17] = target: Sodium-dependent serotonin transporter (Homo sapiens) (UniProt P31645); conditions: Compound concentration 10.0 uM
# [18] = target: Sodium-dependent noradrenaline transporter (Homo sapiens) (UniProt P23975); conditions: Compound concentration 10.0 uM
# Chain of Sodium-dependent noradrenaline transporter (Homo sapiens) (P23975 whole entry): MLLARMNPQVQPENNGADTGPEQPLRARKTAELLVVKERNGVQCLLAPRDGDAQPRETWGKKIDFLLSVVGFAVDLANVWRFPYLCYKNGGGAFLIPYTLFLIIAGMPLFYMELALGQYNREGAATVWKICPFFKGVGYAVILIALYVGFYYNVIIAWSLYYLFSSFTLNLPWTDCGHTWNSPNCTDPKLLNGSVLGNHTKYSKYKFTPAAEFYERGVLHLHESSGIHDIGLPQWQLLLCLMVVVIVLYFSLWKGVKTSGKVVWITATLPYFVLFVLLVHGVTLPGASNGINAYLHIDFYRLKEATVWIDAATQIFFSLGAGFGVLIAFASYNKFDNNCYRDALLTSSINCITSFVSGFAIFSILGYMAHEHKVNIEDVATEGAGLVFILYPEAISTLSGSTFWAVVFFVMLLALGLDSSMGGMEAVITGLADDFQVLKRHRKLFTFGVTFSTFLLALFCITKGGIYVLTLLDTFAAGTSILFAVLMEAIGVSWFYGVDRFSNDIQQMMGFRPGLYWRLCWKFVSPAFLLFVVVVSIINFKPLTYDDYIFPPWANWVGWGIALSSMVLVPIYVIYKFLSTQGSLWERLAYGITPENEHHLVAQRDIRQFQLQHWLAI
# [19] = target: Sodium-dependent dopamine transporter (Homo sapiens) (UniProt Q01959); conditions: Compound concentration 10.0 uM
# [20] = target: Mu-type opioid receptor (Homo sapiens) (UniProt P35372); conditions: Compound concentration 10.0 uM
# Chain of Mu-type opioid receptor (Homo sapiens) (P35372 whole entry): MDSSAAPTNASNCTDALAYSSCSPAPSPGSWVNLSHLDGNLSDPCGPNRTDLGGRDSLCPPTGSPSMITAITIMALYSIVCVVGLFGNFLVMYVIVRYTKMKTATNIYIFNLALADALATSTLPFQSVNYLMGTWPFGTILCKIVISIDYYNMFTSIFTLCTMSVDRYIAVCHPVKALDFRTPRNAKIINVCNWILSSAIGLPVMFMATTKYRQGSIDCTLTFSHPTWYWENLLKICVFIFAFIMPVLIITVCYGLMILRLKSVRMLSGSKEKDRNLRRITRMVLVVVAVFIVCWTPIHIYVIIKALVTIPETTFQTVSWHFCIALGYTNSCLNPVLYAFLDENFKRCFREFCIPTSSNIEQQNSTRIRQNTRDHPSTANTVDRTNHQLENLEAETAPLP
# [21] = target: Delta-type opioid receptor (Homo sapiens) (UniProt P41143); conditions: Compound concentration 10.0 uM
# Chain of Delta-type opioid receptor (Homo sapiens) (P41143 whole entry): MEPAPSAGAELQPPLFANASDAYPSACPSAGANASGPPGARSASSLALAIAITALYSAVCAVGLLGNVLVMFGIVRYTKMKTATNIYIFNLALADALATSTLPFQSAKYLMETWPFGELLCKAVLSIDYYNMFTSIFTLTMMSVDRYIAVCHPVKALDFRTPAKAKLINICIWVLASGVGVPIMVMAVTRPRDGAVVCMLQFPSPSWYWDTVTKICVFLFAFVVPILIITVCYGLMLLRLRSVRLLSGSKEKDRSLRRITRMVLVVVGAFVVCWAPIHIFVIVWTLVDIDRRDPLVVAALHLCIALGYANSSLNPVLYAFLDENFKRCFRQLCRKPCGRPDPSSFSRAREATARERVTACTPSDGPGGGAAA
# [22] = target: Kappa-type opioid receptor (Homo sapiens) (UniProt P41145); conditions: Compound concentration 10.0 uM
# [23] = target: T2, GABA-A receptor; anion channel (Rattus norvegicus) (UniProt O09028+P15431+P18506+P18508+P19969+P20236+P23574+P23576+P28471+P28473+P30191+P62813+P63079+P63138+Q91ZM7+Q9ES14); conditions: Compound concentration 10.0 uM
# [24] = target: Histamine H1 receptor (Homo sapiens) (UniProt P35367); conditions: Compound concentration 10.0 uM
# [25] = target: Histamine H3 receptor (Homo sapiens) (UniProt Q9Y5N1); conditions: Compound concentration 10.0 uM
# [26] = target: Histamine H4 receptor (Homo sapiens) (UniProt Q9H3N8); conditions: Compound concentration 10.0 uM
# [27] = target: Alpha-1A adrenergic receptor (Homo sapiens) (UniProt P35348); conditions: Compound concentration 10.0 uM
# [28] = target: Alpha-2A adrenergic receptor (Homo sapiens) (UniProt P08913); conditions: Compound concentration 10.0 uM
# [29] = target: Alpha-2B adrenergic receptor (Homo sapiens) (UniProt P18089); conditions: Compound concentration 10.0 uM
# [30] = target: Alpha-2C adrenergic receptor (Homo sapiens) (UniProt P18825); conditions: Compound concentration 10.0 uM
# Chain of Alpha-2C adrenergic receptor (Homo sapiens) (P18825 whole entry): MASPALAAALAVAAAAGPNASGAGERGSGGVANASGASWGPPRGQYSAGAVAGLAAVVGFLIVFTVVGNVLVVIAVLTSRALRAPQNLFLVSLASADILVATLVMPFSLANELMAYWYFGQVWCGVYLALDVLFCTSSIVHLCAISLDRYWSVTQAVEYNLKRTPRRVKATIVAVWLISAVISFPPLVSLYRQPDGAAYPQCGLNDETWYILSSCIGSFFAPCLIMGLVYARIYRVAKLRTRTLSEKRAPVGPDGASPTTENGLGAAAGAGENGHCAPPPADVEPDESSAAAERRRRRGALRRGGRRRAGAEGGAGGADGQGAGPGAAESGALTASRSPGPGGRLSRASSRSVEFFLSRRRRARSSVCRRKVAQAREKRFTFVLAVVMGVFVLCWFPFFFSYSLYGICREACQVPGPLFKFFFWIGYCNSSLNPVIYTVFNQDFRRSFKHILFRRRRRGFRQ
# [31] = target: Beta-1 adrenergic receptor (Homo sapiens) (UniProt P08588); conditions: Compound concentration 10.0 uM
# [32] = target: Beta-2 adrenergic receptor (Homo sapiens) (UniProt P07550); conditions: Compound concentration 10.0 uM
# [33] = target: Muscarinic acetylcholine receptor M1 (Homo sapiens) (UniProt P11229); conditions: Compound concentration 10.0 uM
# [34] = target: Muscarinic acetylcholine receptor M2 (Homo sapiens) (UniProt P08172); conditions: Compound concentration 10.0 uM
# [35] = target: Muscarinic acetylcholine receptor M3 (Homo sapiens) (UniProt P20309); conditions: Compound concentration 10.0 uM
# [36] = target: Muscarinic acetylcholine receptor M4 (Homo sapiens) (UniProt P08173); conditions: Compound concentration 10.0 uM
# [37] = target: Beta-3 adrenergic receptor (Homo sapiens) (UniProt P13945); conditions: Compound concentration 10.0 uM
# Chain of Beta-3 adrenergic receptor (Homo sapiens) (P13945 whole entry, looked up): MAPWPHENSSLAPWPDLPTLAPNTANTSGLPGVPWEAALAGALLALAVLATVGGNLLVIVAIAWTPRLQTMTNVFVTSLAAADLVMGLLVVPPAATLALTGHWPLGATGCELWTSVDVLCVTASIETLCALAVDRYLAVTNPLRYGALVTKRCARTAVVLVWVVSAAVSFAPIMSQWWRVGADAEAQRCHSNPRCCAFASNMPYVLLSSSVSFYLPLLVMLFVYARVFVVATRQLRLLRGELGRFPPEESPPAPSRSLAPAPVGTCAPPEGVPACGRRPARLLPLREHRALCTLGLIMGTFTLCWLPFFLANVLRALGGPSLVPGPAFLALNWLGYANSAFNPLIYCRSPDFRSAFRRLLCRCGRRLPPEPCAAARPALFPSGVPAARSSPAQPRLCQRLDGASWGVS
# [38] = target: T2, GABA-A receptor; anion channel (Rattus norvegicus); conditions: Compound concentration 10.0 uM; remark: listed apart in the source
# [39] = species on record: Rattus norvegicus; conditions: Compound concentration 10.0 uM
# [40] = target: Alpha-1D adrenergic receptor (Homo sapiens) (UniProt P25100); conditions: Compound concentration 10.0 uM
# [41] = target: Sigma non-opioid intracellular receptor 1 (Homo sapiens) (UniProt Q99720); conditions: Compound concentration 10.0 uM
# [42] = FLIPR-TETRA assay
# [43] = target: 5-hydroxytryptamine receptor 1A (Homo sapiens, UniProt P08908); experiment: GPCRScan assay: inhibition of 5-HT1A; parameters: radioligand conc. used [nm] 0.5 – 1.0, parental cells stable CHO
# [44] = target: Histamine H2 receptor (Homo sapiens) (UniProt P25021); conditions: Compound concentration 10.0 uM
# [45] = target: Alpha-1B adrenergic receptor (Homo sapiens) (UniProt P35368); conditions: Compound concentration 10.0 uM
# [46] = target: Muscarinic acetylcholine receptor M5 (Homo sapiens) (UniProt P08912); conditions: Compound concentration 10.0 uM
# [47] = target: Sigma intracellular receptor 2 (Homo sapiens) (UniProt Q5BJF2); conditions: Compound concentration 10.0 uM
# T1 sequence (P41595 whole entry): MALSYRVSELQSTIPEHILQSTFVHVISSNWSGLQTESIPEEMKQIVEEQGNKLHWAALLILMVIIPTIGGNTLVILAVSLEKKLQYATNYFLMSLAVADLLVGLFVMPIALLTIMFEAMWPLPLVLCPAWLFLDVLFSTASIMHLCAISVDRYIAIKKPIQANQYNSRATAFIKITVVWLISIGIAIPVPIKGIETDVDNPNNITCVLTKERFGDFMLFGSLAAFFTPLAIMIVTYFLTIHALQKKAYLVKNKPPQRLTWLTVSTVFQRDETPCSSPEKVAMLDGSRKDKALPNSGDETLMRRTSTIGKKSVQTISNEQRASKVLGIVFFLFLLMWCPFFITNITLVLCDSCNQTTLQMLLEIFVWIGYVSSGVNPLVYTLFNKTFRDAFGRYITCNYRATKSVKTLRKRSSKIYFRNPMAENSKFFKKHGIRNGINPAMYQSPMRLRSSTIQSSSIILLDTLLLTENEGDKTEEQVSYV
compound,measurement,setting,value
Nc1nc(NCc2ccccc2)nc(-c2ccccc2CO)n1 [Ogerin],Ki,[1]; read-out: Ki,0.496 µM
same,Ki,[1]; read-out: pKi (converted),0.49 µM
same,inhibition,[2],9.7%
same,inhibition,[3],7.41%
same,inhibition,[4],11.2%
same,inhibition,[5],2.78%
same,inhibition,[6],81%
same,inhibition,[7],9.32%
same,inhibition,[8],2.24%
same,inhibition,[9],10.6%
same,inhibition,[10],19.4%
same,inhibition,[11],43.9%
same,inhibition,[12],33.7%
same,inhibition,[13],10%
same,inhibition,[14],18.9%
same,inhibition,[15],4.35%
same,inhibition,[16],43.9%
same,inhibition,[17],4.96%
same,inhibition,[18],32.1%
same,inhibition,[19],18.1%
same,inhibition,[20],11.9%
same,inhibition,[21],12.5%
same,inhibition,[22],30.2%
same,inhibition,[23],19.7%
same,inhibition,[24],-4.07%
same,inhibition,[25],-1.93%
same,inhibition,[26],8.3%
same,inhibition,[27],25.5%
same,inhibition,[28],24.4%
same,inhibition,[29],43.9%
same,inhibition,[30],0.87%
same,inhibition,[31],25.5%
same,inhibition,[32],20.7%
same,inhibition,[33],23.6%
same,inhibition,[34],23.2%
same,inhibition,[35],36%
same,inhibition,[36],-9.42%
same,inhibition,[37],14.8%
same,inhibition,[38],32.9%
same,inhibition,[39],12.9%
same,inhibition,[40],4.63%
same,inhibition,[41],-0.41%
same,pEC50,[42],6.83
Nc1nc(NCc2ccccc2)nc(-c2cccc(CO)c2)n1 [ZINC32547799],Ki,[43]; read-out: Ki,0.85 µM
same,Ki,[43]; read-out: pKi (converted),0.832 µM
same,inhibition,[2],65.5%
same,inhibition,[3],-2.86%
same,inhibition,[4],13.7%
same,inhibition,[5],1.28%
same,inhibition,[6],41.8%
same,inhibition,[7],3.72%
same,inhibition,[8],37.2%
same,inhibition,[9],0.66%
same,inhibition,[10],26.7%
same,inhibition,[11],15.9%
same,inhibition,[12],3.99%
same,inhibition,[13],-7.4%
same,inhibition,[14],8.38%
same,inhibition,[15],24.4%
same,inhibition,[17],9.44%
same,inhibition,[18],43.6%
same,inhibition,[19],-9.76%
same,inhibition,[20],8.68%
same,inhibition,[21],9.2%
same,inhibition,[22],10.8%
same,inhibition,[24],-5.64%
same,inhibition,[44],4.01%
same,inhibition,[25],6.14%
same,inhibition,[26],-9.05%
same,inhibition,[27],5.91%
same,inhibition,[45],5.01%
same,inhibition,[28],7.24%
same,inhibition,[29],21.8%
same,inhibition,[30],1.4%
same,inhibition,[31],-3.07%
same,inhibition,[32],18%
same,inhibition,[33],35.2%
same,inhibition,[34],10.8%
same,inhibition,[35],18.3%
same,inhibition,[36],21.6%
same,inhibition,[46],12.8%
same,inhibition,[37],17.8%
same,inhibition,[38],18.3%
same,inhibition,[39],8.6%
same,inhibition,[40],-8.75%
same,inhibition,[47],12.3%
same,inhibition,[41],0.95%
